Experimental data: paper PMC3974779, “Pterostilbene-Isothiocyanate Conjugate Suppresses Growth of Prostate Cancer Cells Irrespective of Androgen Receptor Status” (PLoS ONE, 2014)
Residues, ends and D or L forms follow the SMILES beside them. *: point of attachment. Cbz = O=C(OCc1ccccc1)*; CH2F = FC*

Columns and labels:
[1] = test system: GRIP-1 in LNCaP cells; assay: Immunoblot of AR co-activators; assay type: cell-based, human; conditions: DHT treatment
Procedure: (§1) The whole-cell lysates were prepared as described previously in immunoprecipitation (IP) buffer containing 50 mM Tris-HCl (pH 8.0), 150 mM NaCl, 5 mM EDTA, and 1% Triton X-100. Protein aliquots of 500 μg were then incubated overnight at 4°C using 2 μg of antibody directed against AR. The Protein A-Cl Agarose beads were then added and further incubated for 6 h at 4°C. The immunoprecipitates were washed four times with the IP buffer and the immunocomplexes were recovered by boiling in SDS sample buffer. Finally the western blot was carried out using anti-AR, anti-SRC-1 and anti-GRIP-1 antibodies (Santa Cruz, CA, USA). For western blot analysis, the cell lysates were prepared after harvesting them in lysis buffer. About 40 μg of total protein was electrophoresed by 12% SDS-PAGE, and the western blotting was carried out using standard protocol. In brief, the analyzed proteins were transferred to nylon membranes. The blots were then blocked with TBST buffer (20 mM Tris-Cl, pH 7.5, 150 mM sodium chloride, 0.05% Tween-20) containing 5% skim milk powder. They were then washed with TBST buffer and incubated overnight at 4°C with the same buffer containing appropriate amounts of primary antibodies: caspase-3, Bax, Bcl-2, Akt, p-Akt, ERK, p-ERK, AR, SRC-1, GRIP-1 (1∶500) and β-actin (1∶1000). The blots were then washed and incubated with anti-rabbit secondary antibody (1∶20,000) conjugated with horseradish peroxidase (HRP). Color development was performed in the dark by using an ECL kit (Amersham, GE Healthcare, Buckinghamshire, UK). The developed blots were subjected to densitometric analysis by ImageJ 1.43 software (NIH, USA) using β-actin as internal control.

[2] = test system: SRC-1 in LNCaP cells; assay: Immunoblot of AR co-activators; assay type: cell-based, human; conditions: DHT treatment
Procedure: as §1

[3] = test system: p53 protein in LNCaP cells; assay: Immunoblot of p53 with p53 inhibitor; assay type: cell-based, human; conditions: 20 μM PFT-α, 20 and 40 μM conjugate, 24 h
Procedure: The whole-cell lysates were prepared as described previously in immunoprecipitation (IP) buffer containing 50 mM Tris-HCl (pH 8.0), 150 mM NaCl, 5 mM EDTA, and 1% Triton X-100. Protein aliquots of 500 μg were then incubated overnight at 4°C using 2 μg of antibody directed against AR. The Protein A-Cl Agarose beads were then added and further incubated for 6 h at 4°C. The immunoprecipitates were washed four times with the IP buffer and the immunocomplexes were recovered by boiling in SDS sample buffer. Finally the western blot was carried out using anti-AR, anti-SRC-1 and anti-GRIP-1 antibodies (Santa Cruz, CA, USA). For western blot analysis, the cell lysates were prepared after harvesting them in lysis buffer. About 40 μg of total protein was electrophoresed by 12% SDS-PAGE, and the western blotting was carried out using standard protocol. In brief, the analyzed proteins were transferred to nylon membranes. […]
Since there was no significant difference in the number of apoptotic cells between conjugate treated LNCaP (wild type p53) and PC-3 (p53 null) cells (p<0.05), it was intriguing to check if p53 has any role in conjugate induced apoptosis of PCa cells. […] Next we determined the effect of p53-inhibition on conjugate induced cell death by using MTT assay.

[4] = test system: COS-1 cells; assay: MTT cytotoxicity assay; assay type: cell-based; conditions: Chlorocebus aethiops, COS-1 noncancer cells, 24 h exposure, read-out: IC50 value (50% growth inhibition)
Procedure: (§2) MTT assay was carried out as described previously. In brief, 5×10^3 cells in 200 μl of medium were seeded in 96-well plates (Griener, Germany). After 24 h, the cells were treated with various concentrations (0.1, 1, 10, 100 and 1000 μM) of RESV, PTER and conjugate. The control cells were treated with 0.1% DMSO (vehicle control). The cultured cells were assayed after 24 h by adding 20 μl of 5 mg/ml MTT followed by incubating at 37°C for 4 h. The MTT containing media was then aspirated and 200 μl DMSO (Himedia, Mumbai, India) was added to dissolve the formazone crystals. The optical density (OD) was measured at 570 nm using ELISA plate reader (Fluostar optima, BMG Labtech, Germany). The percentage inhibition was calculated as: [drawing 1]
(§3) The dose response curve and IC50 values were obtained by nonlinear regression analysis [non-linear regression (sigmoidal dose response with variable slope)] using Graph Pad Prism, version 5.02 software (Graph Pad Software Inc., CA, USA).

[5] = test system: PC-3 cells; assay: MTT cytotoxicity assay; assay type: cell-based; conditions: Homo sapiens; PC-3, MTT, 24 h exposure, mean ± SEM; read-out: IC50 value (50% growth inhibition)
Procedure: as §2, §3

[6] = test system: LNCaP cells; assay: MTT cytotoxicity assay; assay type: cell-based; conditions: Homo sapiens, 24 h, 24 h exposure, mean ± SEM, read-out: IC50 value (50% growth inhibition)
Procedure: as §2, §3

[7] = test system: CHO cells; assay: MTT cytotoxicity assay; assay type: cell-based; conditions: Cricetulus griseus, CHO noncancer cells, 24 h exposure, read-out: IC50 value (50% growth inhibition)
Procedure: as §2, §3

[8] = test system: caspase-3 activity in PC-3 cells; assay: Caspase colorimetric protease assay; assay type: cell-based, human; conditions: PC-3, 10, 20 and 40 μM, 24 h
Procedure: (§4) Caspase activity was determined using ApoTarget caspase colorimetric protease assay sampler kit (KHZ1001; Invitrogen) according to the manufacturer’s instructions. Briefly, both the PCa cells were treated with increasing doses of conjugate and RESV for 24 h. The cells were then collected, washed in PBS, and lysed in 50 μl lysis buffer on ice for 10 min. After centrifugation, the supernatant containing 150 μg proteins were incubated with 200 μM of caspase-3 (Ac-DEVD-pNA), caspase-8 (Ac-IETD-pNA) and caspase-9 (Ac-LEHD-pNA) substrates respectively in reaction buffer at 37°C for 1 h in 96 well flat bottom plate. Levels of released pNA were then measured at 405 nm wavelength with ELISA plate reader (Fluostar optima, BMG Labtech, Germany). The fold-increase in caspase-3, -8, and -9 activities were determined by direct comparison to the level of un-induced control. For the caspase inhibitor assay, cells were pretreated with a synthetic pan-caspase inhibitor (Z-VAD-FMK), caspase-8 inhibitor (Z-IETD-FMK) and caspase-9 inhibitor (Z-LEHD-FMK) for 1 h before the addition of conjugate and the cell death were analyzed by MTT assay as discussed earlier.

[9] = test system: caspase-3 activity in LNCaP cells; assay: Caspase colorimetric protease assay; assay type: cell-based, human; conditions: 24 h
Procedure: as §4

[10] = test system: caspase-8 activity in PC-3 cells; assay: Caspase colorimetric protease assay; assay type: cell-based, human; conditions: PC-3, 24 h, high dose
Procedure: as §4

[11] = test system: caspase-9 activity in PC-3 cells; assay: Caspase colorimetric protease assay; assay type: cell-based, human; conditions: PC-3, 10, 20 and 40 μM, 24 h
Procedure: as §4

[12] = test system: caspase-9 activity in LNCaP cells; assay: Caspase colorimetric protease assay; assay type: cell-based, human; conditions: 24 h
Procedure: as §4

[13] = test system: AR in LNCaP cells; assay: Immunofluorescence staining of endogenous AR; assay type: cell-based, human; conditions: varying doses of conjugate, 20 μM RESV, DHT
Procedure: The cells were then incubated with AR rabbit polyclonal antibody diluted 1∶200 in blocking buffer for 1 h at RT. Finally, the cells were washed with PBS and incubated with FITC-labelled anti-rabbit secondary antibody diluted 1∶1000 in blocking buffer for 30 min at room temperature. The cells were then observed under a fluorescence microscope (Zeiss, Axiovert 25, Germany).

[14] = test system: AR protein in LNCaP cells; assay: Immunoblot of AR protein; assay type: cell-based, human
Procedure: as §1

[15] = test system: p-Akt in PC-3 cells; assay: Immunoblot of Akt phosphorylation; assay type: cell-based, human; conditions: 24 h
Procedure: as §1
(§5) The siRNAs against human Akt and ERK and control siRNA were purchased commercially from Santa Cruz Biotechnology (USA). The LNCaP and PC-3 PCa cells were transfected with siRNAs (at a final concentration of 100 nM) using polyfect transfection reagent (Qiagen, CA, USA) according to manufacturer’s instructions. After 24 h of transfection, the cells were washed properly and replaced with fresh medium. The cells were then treated with 20 μM conjugate for 24 h, and finally protein lysates were prepared on completion of treatment. The levels of p-Akt, p-ERK and cleaved caspase-3 expressions were detected by Western blot analysis.

[16] = test system: p-Akt in LNCaP cells; assay: Immunoblot of Akt phosphorylation; assay type: cell-based, human; conditions: below 20 μM, 24 h
Procedure: as §1, §5

[17] = test system: caspase-3 expression in LNCaP cells; assay: Immunoblot analysis of apoptotic markers; assay type: cell-based, human; conditions: highest dose (40 μM), immunoblot densitometry
Procedure: as §1

[18] = test system: caspase-3 expression in PC-3 cells; assay: Immunoblot analysis of apoptotic markers; assay type: cell-based, human; conditions: PC-3, highest dose (40 μM), immunoblot densitometry
Procedure: as §1

[19] = test system: p-ERK in PC-3 cells; assay: Immunoblot of ERK phosphorylation; assay type: cell-based, human; conditions: 24 h
Procedure: as §1, §5

[20] = test system: LNCaP cells; assay: Caspase inhibitor assay (conjugate-induced cell death, MTT); assay type: cell-based, human; conditions: 20 μM caspase inhibitor 1 h before 20 μM conjugate, MTT after 24 h
Procedure: as §4
(§6) Figure 2 The conjugate induces G2/M phase arrest and caspase dependent cell death in prostate cancer cells. Cell cycle distribution of (A) PC-3 and (B) LNCaP cells upon treatment with varying doses of conjugate. Results are presented as mean ± SEM of three independent experiments. *represents statistically significant difference with respect to vehicle treated PC-3 and LNCaP cells respectively corresponding to each stage of cell cycle at p<0.05. (C) The effects of varying doses of conjugate (left panel) and resveratrol (right panel) on caspase-8, -9 and -3 activities in PC-3 and (D) LNCaP cells. Results are the mean ± SEM of three independent experiments. *represents statistically significant difference with respect to control cells for respective caspases tested at p<0.05. (E) The effect of caspase inhibitors on conjugate-induced cell death in PC-3 and (F) LNCaP cells. The cells were pre-treated with 20 μM of respective caspase inhibitors: Z-LEHDFMK (caspase-9 inhibitor); Z-IETDFMK (caspase-8 inhibitor); and Z-VAD-FMK (general caspase inhibitor) for 1 h before the addition of 20 μM conjugate. Cell death was measured 24 h after conjugate treatment using MTT assay. Data are the mean ± SEM of three independent experiments. *and # represents statistically significant difference with respect to control (vehicle) and conjugate treated cells respectively for each cell lines at p<0.05. ns, non-significant.

[21] = test system: PC-3 cells; assay: as above; assay type: cell-based, human; conditions: PC-3, 20 μM caspase inhibitor 1 h before 20 μM conjugate, MTT after 24 h
Procedure: as §4, §6

C[C@]12CCC(=O)C[C@@H]1CC[C@@H]1[C@@H]2CC[C@]2(C)[C@@H](O)CC[C@@H]12 [DHT, dihydrotestosterone, reference compound]
change in expression of GRIP-1 [1]: no significant change
increase in expression of SRC-1 [2]: 1.2 fold

Cc1ccc(C(=O)Cn2c3c(sc2=N)CCCC3)cc1 [PFT-α, pifithrin-α, reference compound]
expression of p53 protein [3]: significantly down regulated

COc1cc(/C=C/c2ccc(O)cc2)cc(OC)c1 [Pterostilbene]
IC50 [4]: > 100 µM
IC50 [5]: 75 ± 2.55 µM
IC50 [6]: ~66.4 µM
IC50 [7]: > 100 µM

Oc1ccc(/C=C/c2cc(O)cc(O)c2)cc1 [Resveratrol, reference compound]
caspase-3 enzyme activity [8]: dose-dependent augmentation
caspase-3 activity [9]: significant increase
caspase-8 activity [10]: marginal increase
caspase-9 enzyme activity [11]: dose-dependent augmentation
caspase-9 activity [12]: significant increase
AR immunofluorescence intensity [13]: marginal decrease
IC50 [4]: > 100 µM
IC50 [5]: 95 ± 1.13 µM
IC50 [6]: ~82.2 µM
IC50 [7]: > 100 µM
inhibition of AR protein levels ([14]; 10 and 20 μM, absence of DHT): did not show any significant inhibition
inhibition of DHT induced AR protein levels ([14]; till 20 μM, 10 nM DHT): did not show any significant inhibition
decrease in level of p-Akt ([15]; PC-3, 20 μM): about 1.2 folds
decrease in level of p-Akt ([15]; PC-3, 40 μM): ~1.6 folds
effect on level of p-Akt [16]: negligible effects
enhancement of caspase-3 expression [17]: 4.5 folds
enhancement of caspase-3 expression [18]: 3.5 folds
reduction in level of p-ERK ([19]; PC-3, 20 μM): 1.3 folds
reduction in level of p-ERK ([19]; PC-3, 40 μM): 1.8 folds

COC(=O)CC[C@H](NC(=O)[C@H](CC(C)C)NC(=O)OCc1ccccc1)C(=O)N[C@@H](Cc1c[nH]cn1)C(=O)N[C@@H](CC(=O)OC)C(=O)CF [Z-LEHD-FMK] (Cbz-LE(OMe)HD(OMe)-CH2F)
inhibition of conjugate induced cell death/apoptosis [20]: almost completely blocked

Cbz-Val-Ala-Asp-CH2F
inhibition of conjugate induced cell death [21]: significant inhibition of cell death
inhibition of conjugate induced cell death/apoptosis [20]: significant inhibition of cell death

Z-IETD-FMK: caspase-8 specific inhibitor
inhibition of conjugate induced cell death [21]: completely ineffective
inhibition of conjugate induced cell death/apoptosis [20]: only partially inhibited
